target: T1, Cannabinoid-1 receptor (CB1R) (Rattus norvegicus, UniProt P20272); assay: Cannabinoid-1 receptor (CB1R) binding affinity assay ([3H]CP-55940, rat CB-1 receptor binding protocol); settings: brain tissue of SD rats, [3H]CP-55940, 30° C. 60 min; read-out: IC50
T1 construct: The tissue obtained from the brain of SD rats was homogenized; from tissue; host or cells: brain of SD rats (membrane pellet of the homogenate)
T1 sequence (P20272 whole entry): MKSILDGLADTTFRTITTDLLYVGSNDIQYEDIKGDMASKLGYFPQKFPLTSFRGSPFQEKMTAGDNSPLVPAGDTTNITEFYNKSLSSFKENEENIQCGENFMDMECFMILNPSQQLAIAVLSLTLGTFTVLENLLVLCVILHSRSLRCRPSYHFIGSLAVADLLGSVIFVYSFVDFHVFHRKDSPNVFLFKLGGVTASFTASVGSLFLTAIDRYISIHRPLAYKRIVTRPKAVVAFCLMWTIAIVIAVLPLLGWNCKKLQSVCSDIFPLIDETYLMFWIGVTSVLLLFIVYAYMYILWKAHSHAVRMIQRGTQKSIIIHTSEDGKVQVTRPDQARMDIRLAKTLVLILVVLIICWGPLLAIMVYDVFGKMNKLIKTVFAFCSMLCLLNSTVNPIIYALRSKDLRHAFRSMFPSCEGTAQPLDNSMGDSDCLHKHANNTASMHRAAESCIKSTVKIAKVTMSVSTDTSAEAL

Row | Structure (SMILES) | IC50
1 | CCc1c(-c2nnc(C3(c4cccc(Cl)c4)CC3)s2)nn(-c2ccc(Cl)cc2Cl)c1-c1ccc(Br)cc1 [Example 495, 2-(5-(4-bromophenyl)-1-(2,4-dichlorophenyl)-4-ethyl-1H-pyrazol-3-yl)-5-(1-(3-chlorophenyl)cyclopropyl)-1,3,4-thiadiazole] | 6.23 nM
2 | Cc1c(-c2nnc(C3(c4ccc(F)cc4)CC3)s2)nn(-c2ccc(Cl)cc2Cl)c1-c1ccc(Cl)cc1 [Example 496, 2-(5-(4-chlorophenyl)-1-(2,4-dichlorophenyl)-4-methyl-1H-pyrazol-3-yl)-5-(1-(4-fluorophenyl)cyclopropyl)-1,3,4-thiadiazole] | 48.9 nM
3 | CC(C)c1c(-c2nnc(C3(C(F)(F)F)CC3)s2)nn(-c2ccc(Cl)cc2Cl)c1-c1ccc(Cl)cc1 [Example 498, 2-(5-(4-chlorophenyl)-1-(2,4-dichlorophenyl)-4-isopropyl-1H-pyrazol-3-yl)-5-(1-(trifluoromethyl)cyclopropyl)-1,3,4-thiadiazole] | 11.4 nM
4 | CCCc1c(-c2nnc(C3(C(F)(F)F)CC3)s2)nn(-c2ccc(Cl)cc2Cl)c1-c1ccc(Cl)cc1 [Example 499, 2-(5-(4-chlorophenyl)-1-(2,4-dichlorophenyl)-4-propyl-1H-pyrazol-3-yl)-5-(1-(trifluoromethyl)cyclopropyl)-1,3,4-thiadiazole] | 21 nM
5 | CCc1c(-c2nnc(C3(C(F)(F)F)CC3)s2)nn(-c2ccc(Cl)cc2Cl)c1-c1ccc(Cl)cc1 [Example 500, 2-(5-(4-chlorophenyl)-1-(2,4-dichlorophenyl)-4-ethyl-1H-pyrazol-3-yl)-5-(1-(trifluoromethyl)cyclopropyl)-1,3,4-thiadiazole] | 23.3 nM
6 | CCc1c(-c2nnc(C3(c4ccccc4F)CC3)s2)nn(-c2ccc(Cl)cc2Cl)c1-c1ccc(Cl)cc1 [Example 501, 2-(5-(4-chlorophenyl)-1-(2,4-dichlorophenyl)-4-ethyl-1H-pyrazol-3-yl)-5-(1-(2-fluorophenyl)cyclopropyl)-1,3,4-thiadiazole] | 6.81 nM
7 | Clc1ccc(-c2c(Cn3cncn3)c(-c3nnc(C4CCC4)s3)nn2-c2ccc(Cl)cc2Cl)cc1 [Example 504, 2-(4-((1H-1,2,4-triazol-1-yl)methyl)-5-(4-chlorophenyl)-1-(2,4-dichlorophenyl)-1H-pyrazol-3-yl)-5-cyclobutyl-1,3,4-thiadiazole] | 2.18 nM
8 | Clc1ccc(-c2c(Cn3cncn3)c(-c3nnc(C4(c5ccc(Cl)cc5)CC4)s3)nn2-c2ccc(Cl)cc2Cl)cc1 [Example 506, 2-(4-((1H-1,2,4-triazol-1-yl)methyl)-5-(4-chlorophenyl)-1-(2,4-dichlorophenyl)-1H-pyrazol-3-yl)-5-(1-(4-chlorophenyl)cyclopropyl)-1,3,4-thiadiazole] | 2.49 nM
9 | Clc1ccc(-c2c(Cn3cncn3)c(-c3nnc(C4(c5ccccc5)CC4)s3)nn2-c2ccc(Cl)cc2Cl)cc1 [Example 507, 2-(4-((1H-1,2,4-triazol-1-yl)methyl)-5-(4-chlorophenyl)-1-(2,4-dichlorophenyl)-1H-pyrazol-3-yl)-5-(1-phenylcyclopropyl)-1,3,4-thiadiazole] | 1.79 nM
10 | Cc1ccc(C2(c3nnc(-c4nn(-c5ccc(Cl)cc5Cl)c(-c5ccc(Cl)cc5)c4Cn4cncn4)s3)CC2)cc1 [Example 508, 2-(4-((1H-1,2,4-triazol-1-yl)methyl)-5-(4-chlorophenyl)-1-(2,4-dichlorophenyl)-1H-pyrazol-3-yl)-5-(1-p-tolylcyclopropyl)-1,3,4-thiadiazole] | 5.74 nM
11 | COc1ccc(C2(c3nnc(-c4nn(-c5ccc(Cl)cc5Cl)c(-c5ccc(Cl)cc5)c4Cn4cncn4)s3)CC2)cc1 [Example 509, 2-(4-((1H-1,2,4-triazol-1-yl)methyl)-5-(4-chlorophenyl)-1-(2,4-dichlorophenyl)-1H-pyrazol-3-yl)-5-(1-(4-methoxyphenyl)cyclopropyl)-1,3,4-thiadiazole] | 2.07 nM
12 | Clc1ccc(-c2c(Cn3cncn3)c(-c3nnc(C4(c5ccc(Cl)cc5Cl)CC4)s3)nn2-c2ccc(Cl)cc2Cl)cc1 [Example 510, 2-(4-((1H-1,2,4-triazol-1-yl)methyl)-5-(4-chlorophenyl)-1-(2,4-dichlorophenyl)-1H-pyrazol-3-yl)-5-(1-(2,4-dichlorophenyl)cyclopropyl)-1,3,4-thiadiazole] | 11.3 nM
13 | FC(F)(F)C1(c2nnc(-c3nn(-c4ccc(Cl)cc4Cl)c(-c4ccc(Cl)cc4)c3Cn3cncn3)s2)CC1 [Example 511, 2-(4-((1H-1,2,4-triazol-1-yl)methyl)-5-(4-chlorophenyl)-1-(2,4-dichlorophenyl)-1H-pyrazol-3-yl)-5-(1-(trifluoromethyl)cyclopropyl)-1,3,4-thiadiazole] | 2.29 nM
14 | FC(F)(F)C1(c2nnc(-c3nn(-c4ccc(Cl)cc4Cl)c(-c4ccc(Cl)cc4)c3Cn3cncn3)s2)CCC1 [Example 512, 2-(4-((1H-1,2,4-triazol-1-yl)methyl)-5-(4-chlorophenyl)-1-(2,4-dichlorophenyl)-1H-pyrazol-3-yl)-5-(1-(trifluoromethyl)cyclobutyl)-1,3,4-thiadiazole] | 2.89 nM
15 | Clc1ccc(-c2c(Cn3cncn3)c(-c3nnc(C4(c5ccc(Cl)cc5)CCC4)s3)nn2-c2ccc(Cl)cc2Cl)cc1 [Example 513, 2-(4-((1H-1,2,4-triazol-1-yl)methyl)-5-(4-chlorophenyl)-1-(2,4-dichlorophenyl)-1H-pyrazol-3-yl)-5-(1-(4-chlorophenyl)cyclobutyl)-1,3,4-thiadiazole] | 2.34 nM
16 | Clc1ccc(-c2c(Cn3cncn3)c(-c3nnc(C4(c5ccccc5)CCCC4)s3)nn2-c2ccc(Cl)cc2Cl)cc1 [Example 514, 2-(4-((1H-1,2,4-triazol-1-yl)methyl)-5-(4-chlorophenyl)-1-(2,4-dichlorophenyl)-1H-pyrazol-3-yl)-5-(1-phenylcyclopentyl)-1,3,4-thiadiazole] | 2.88 nM
17 | Clc1ccc(-c2c(Cn3cncn3)c(-c3nnc(C4(c5ccc(Cl)cc5)CCCC4)s3)nn2-c2ccc(Cl)cc2Cl)cc1 [Example 515, 2-(4-((1H-1,2,4-triazol-1-yl)methyl)-5-(4-chlorophenyl)-1-(2,4-dichlorophenyl)-1H-pyrazol-3-yl)-5-(1-(4-chlorophenyl)cyclopentyl)-1,3,4-thiadiazole] | 1.91 nM
18 | CC(=O)OCc1c(-c2nnc(C(C)(C)C)s2)nn(-c2ccc(Cl)cc2Cl)c1-c1ccc(Br)cc1 [Example 520, (5-(4-bromophenyl)-3-(5-tert-butyl-1,3,4-thiadiazol-2-yl)-1-(2,4-dichlorophenyl)-1H-pyrazol-4-yl)methyl acetate] | 9.01 nM
19 | CC(=O)OCc1c(-c2nnc(C(C)(C)C)s2)nn(-c2ccc(Cl)cc2Cl)c1-c1ccc(Cl)cc1 [Example 521, (3-(5-tert-butyl-1,3,4-thiadiazol-2-yl)-5-(4-chlorophenyl)-1-(2,4-dichlorophenyl)-1H-pyrazol-4-yl)methyl acetate] | 16.7 nM
20 | CC(C)(C)c1nnc(-c2nn(-c3ccc(Cl)cc3Cl)c(-c3ccc(Br)cc3)c2CO)s1 [Example 522, (5-(4-bromophenyl)-3-(5-tert-butyl-1,3,4-thiadiazol-2-yl)-1-(2,4-dichlorophenyl)-1H-pyrazol-4-yl)methanol] | 4.61 nM
21 | CC(C)(C)c1nnc(-c2nn(-c3ccc(Cl)cc3Cl)c(-c3ccc(Cl)cc3)c2CO)s1 [Example 523, (3-(5-tert-butyl-1,3,4-thiadiazol-2-yl)-5-(4-chlorophenyl)-1-(2,4-dichlorophenyl)-1H-pyrazol-4-yl)methanol] | 6.88 nM

Reference: US7875647B2, “Heteroaryl-pyrazole derivatives as cannabinoid CB1 receptor antagonists” (Green Cross Corporation, priority 2006, dated 2011)
